Here are results for 41 compounds from PubChem BioAssay AID1949 (Southern Research Institute, 2009).

For orientation: IC50 means the concentration that inhibits the measured activity by half.

Converted amounts (≈) assume the structure as drawn. Inconclusive results are not listed. The source made the active and inactive calls. No rule for the calls is given here.

The test relates to M. tuberculosis H37Rv growth inhibition. In words: Mycobacterium tuberculosis H37Rv growth inhibition, cell based, confirmatory dose response (AID 1949).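 Also: bacteria grown 7 days with compound before Alamar blue readout.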
Take `Cn1c(NC(=S)Nc2ccccc2)nc2ccccc21`: the IC50 is 0.35 µg/mL (≈ 1.24 µM).

On to `O=C(Oc1cccc2cccnc12)c1ccco1`, for which the IC50 is 0.75 µg/mL (≈ 3.14 µM).

As to `COC(=O)c1c(C)oc2ccc(OC(=O)c3cccc([N+](=O)[O-])c3)cc12`, the IC50 is 3.65 µg/mL (≈ 10.3 µM).

Consider `CN(CCOCCOc1ccc(I)cc1)Cc1ccccc1`, for which the IC50 was 6.75 µg/mL (≈ 16.4 µM).

Turning to `CCCCNCCOc1ccc(Cl)cc1C(C)(C)C`, the IC50 was 12.8 µg/mL (≈ 45 µM).

For `CCC(C)(C)C1CCc2sc3ncnc(N4CCN(C)CC4)c3c2C1` (stereo unspecified), the IC50 is 6.39 µg/mL (≈ 17.8 µM).

Take `CC(C)(C)n1cnc2cc(NC(=O)c3ccc(Cl)cc3)ccc21`: the IC50 was 0.99 µg/mL (≈ 3.02 µM).

Regarding `CCOC(=O)c1c2c(n(C)c1CN(CC)CC)C(=O)C(=O)c1ccc(Br)cc1-2`, the half-maximal inhibitory concentration (IC50) is 0.17 µg/mL (≈ 0.38 µM).

As to `CCOC(=O)COc1ccc(C(=O)Nc2ccc(F)cc2)cc1`, the IC50 is below 0.1 µg/mL.

With `S=C(NCCc1ccccc1)Nc1ccc(Nc2ccccc2)cc1`, the IC50 was 3.85 µg/mL (≈ 11.1 µM).

For `COC(=O)c1ccc(CSc2nnc(-c3ccncc3)o2)o1`, the IC50 was > 50 µg/mL (inactive).

Regarding `CC(=O)c1ccc(S(=O)(=O)c2ccc(C)cc2)c([N+](=O)[O-])c1`, the IC50 was 2.94 µg/mL (≈ 9.21 µM).

In the case of `N#Cc1ccc(NC(=O)CSc2ccc(Br)cc2)cc1`, the IC50 was 3.04 µg/mL (≈ 8.75 µM).

Turning to `COc1ccc(CNC(=O)c2c(N)nc3sc4c(c3c2C(F)(F)F)CCC4)cc1`, the IC50 is 0.31 µg/mL (≈ 0.736 µM).

In the case of `O=C(CC1COc2ccccc2O1)Nc1ccc(Br)cc1` (stereo unspecified), the half-inhibitory concentration (IC50) is 11 µg/mL (≈ 31.6 µM).

Turning to `CCOC(=O)COc1ccc2c(=O)c(Oc3cnn(-c4ccccc4)c3)c(C)oc2c1`, the IC50 is 0.61 µg/mL (≈ 1.45 µM).

As to `c1ccc(CCNc2nc(-c3ccccn3)cs2)cc1`, the IC50 is 0.4 µg/mL (≈ 1.42 µM).

For `O=C1c2cccc3cccc(c23)C(=O)N1c1ccc2[nH]c(=O)[nH]c2c1`, the IC50 was 33 µg/mL (≈ 100 µM).

As for `c1ccc(CNCc2cn(-c3ccccc3)nc2-c2ccncc2)cc1`, the IC50 is 16.5 µg/mL (≈ 48.5 µM).

Consider `Clc1ccc2[nH]c3c(c2c1)CCc1cn[nH]c1-3`, for which the IC50 is > 50 µg/mL (inactive).

With `CCn1c2ccccc2c2cc(NC(=O)C34CCC(C)(C(=O)C3)C4(C)C)ccc21` (stereo unspecified), the IC50 was 11.5 µg/mL (≈ 29.7 µM).

On to `C=CCn1c(NCc2cccc3ccccc23)nc2ccccc21`, for which the IC50 was 3.16 µg/mL (≈ 10.1 µM).

`Cc1ccccc1N1C(=O)NC(=O)/C(=C\c2ccc([N+](=O)[O-])s2)C1=O`: the IC50 is 6.22 µg/mL (≈ 17.4 µM).

In the case of `O=C(COc1ccc2c(-c3ccccc3)cc(=O)oc2c1)OC1CCCCC1`, the IC50 is below 0.1 µg/mL.

Consider `COc1ccc(C(=O)NC(=S)Nc2ccc([N+](=O)[O-])cc2O)cc1Br`, for which the IC50 is below 0.1 µg/mL.

Take `O=C(Oc1cccc2cccnc12)c1ccc(S(=O)(=O)N2CCCCC2)cc1`: the IC50 was 1.48 µg/mL (≈ 3.73 µM).

As for `Cc1ccc(S(=O)(=O)c2nc(S(=O)(=O)Cc3ccc([N+](=O)[O-])cc3)sc2Cl)cc1`, the IC50 is 1.04 µg/mL (≈ 2.2 µM).

For `Nc1nnc(Sc2ccc([N+](=O)[O-])c3ncccc23)s1`, the IC50 was 3.47 µg/mL (≈ 11.4 µM).

Consider `Cc1cc(OCCCN2CCCC(C)C2)cc(C(C)C)c1` (stereo unspecified), for which the IC50 was 5.85 µg/mL (≈ 20.2 µM).

With `Oc1ccc(CNc2ccccc2O)cc1`, the IC50 was 1.02 µg/mL (≈ 4.74 µM).

`Cc1cc2ncn(Cc3ccc(C(C)C)cc3)c2cc1C`: the IC50 is 0.91 µg/mL (≈ 3.27 µM).

Turning to `COc1ccc(Cl)cc1/C=C/[N+](=O)[O-]`, the IC50 was 5.64 µg/mL (≈ 26.4 µM).

In the case of `Cc1cc(O)ccc1N1C(=O)c2cccc3c([N+](=O)[O-])ccc(c23)C1=O`, the concentration for half-maximal inhibition (IC50) is 21.3 µg/mL (≈ 61.1 µM).

In the case of `CCOC(=O)c1c(-c2ccccc2)oc2ccc(O)c(CN3CCCC3)c12`, the IC50 was 3.37 µg/mL (≈ 9.22 µM).

In the case of `COc1cccc(N2C(=O)c3cccc4cc([N+](=O)[O-])cc(c34)C2=O)c1`, the IC50 is 11 µg/mL (≈ 31.7 µM).

As to `CCOc1ccc(Nc2nc(N)c(C(=O)C(C)(C)C)s2)cc1`, the half-inhibitory concentration (IC50) is 5.96 µg/mL (≈ 18.7 µM).

For `O=[N+]([O-])/C=C/c1ccccc1OCc1cccc(F)c1`, the half-inhibitory concentration (IC50) is 6.26 µg/mL (≈ 22.9 µM).

Consider `CCCOc1ccccc1-c1nc(SCC(=O)OCC)n[nH]1`, for which the IC50 is 1.86 µg/mL (≈ 5.79 µM).

Consider `COC(=O)c1cccc(NC(=O)COc2ccc(C(C)(C)C)cc2)c1`, for which the IC50 was > 50 µg/mL (inactive).

For `O=C(Oc1c(Cl)cc(Cl)c2cccnc12)c1ccccc1[N+](=O)[O-]`, the IC50 is 0.2 µg/mL (≈ 0.551 µM).

`Cc1ccc(-c2csc(-c3ccncc3)n2)cc1C`: the half-maximal inhibitory concentration (IC50) is 1.85 µg/mL (≈ 6.95 µM).
